Measurements reported in US9387212B2, “Methods for treating Parkinson's disease” (UCB Pharma S.A., priority 2012, dated 2016).

Tested on: unilateral 6-OHDA-lesioned rat model of Parkinson's disease
Assay: General activity (distance travelled, rearing counts) in actometers
Format: in vivo
Settings: Radiprodil 3 mg/kg po, Tozadenant 30 mg/kg po; three-way mixed ANOVA, Tukey p<0.05
Procedure: Subjects: Males Sprague-Dawley rats (Janvier, France), weighing 250-275 g at the time of surgery and 400-450 g at the time of drug testing are used.
On the day of surgery, one week after arrival, rats received unilateral 6-OHDA injection into the right medial forebrain bundle. Each rat was administered with Imipramine HCl (Sigma) 15 minutes before surgery to protect norepinephrinergic (NE) neurons. Rats were anesthetized with Ketamine (Ceva, 75 mg/kg) and Xylazine (Bayer, 10 mg/kg) and placed in stereotaxic frame (David Kopf Instrument). […] Each rat was monitored and handled regularly for 3 weeks to ensure full recovery and acclimation to the experimenters and environment. […]
General activity was recorded within large open-field measuring horizontal and vertical movements and connected to PCs. […] Locomotion was detected and measured by 16 infrared light-beam sensors located on each side of the enclosure at heights of 3 cm. […] Activity counts were recorded by a personal computer. […]
The level of general activity (distance and rearing) measurement in actometers was assessed by three-way mixed ANOVA with the A2A antagonist (2 levels) and the NR2B antagonist (2 levels) as between-group factors and the time as within-subjects factor (6 or 24 levels). […]

O=C(Nc1ccc2[nH]c(=O)oc2c1)C(=O)N1CCC(Cc2ccc(F)cc2)CC1 [Radiprodil]
distance (FIG. 1, right graph): Significant effect
